In US20090088417A1, “VANILLOID RECEPTOR ANTAGONIST FOR PREVENTION AND TREATMENT OF DRUG DEPENDENCE AND ADDICTION” (priority 2006, published 2009):
Entries after “also recorded” stand apart in the source; their conditions may differ.

How the values were obtained:
[1] = system: male ICR mouse; test: Conditioned place preference (CPP) test, development of psychological dependence on cocaine; assay type: in vivo; details: measured on ninth day
Procedure: In the present invention, a conditioned place preference (CPP) test is used to monitor the degree of alleviation in drug dependence and addiction. The CPP system used in the present invention includes a white box, a black box and a pathway connecting the two boxes with each other. Mice are used as test animals and effects on preference/aversion are analyzed by measuring residence times of the mice in the two boxes.
Development of psychological dependence on cocaine was determined according to the CPP (conditioned place preference) test. […]
Step 1 (Basic Test): On the first day of the test, the Guillotine door between the two boxes was opened, and a male ICR mouse having a body weight of 20˜25 g made available by MJ Ltd. (Seoul) was accommodated in the CPP system so that it could move freely therein for 5 minutes. […] Then, residence times of the mouse in the two boxes were measured for 15 minutes to obtain reference values. […]
Step 3 (Test Step): On the ninth day of the test, the Guillotine door between the two boxes was opened, a pathway was provided in the middle of the boxes, and then a mouse, to which no drug was administered, was allowed to remain in the two boxes for 15 minutes. Then, residence times in the white box and in the black box were measured and compared to the values measured on the second day of the test. […]

[2] = system: mice; test: Locomotor activity, behavioral sensitization caused by cocaine (displacement from spontaneous movements); assay type: in vivo, mouse
Procedure: Behavioral sensitization in recurrence of psychological dependence on cocaine was determined according to the locomoter activity. See [Yoo et al. 2003, Neurosci Lett. 433, pp 37-40].
Test animals were divided into four groups as follows: physiological saline was administered to the first test group, cocaine was administered to the second test group, cocaine +2.5 mg/kg of capsazepine (pretreatment) was administered to the third test group, and cocaine +5.0 mg/kg of capsazepine (pretreatment) was administered to the fourth test group.
A locomotor box was used for the test. […] The bottom of the box was covered with a black sheet having substantially the same size as the former.
Step (1)—Basic Test: On the first day, mice were allowed to move freely in the locomotor box for 30 minutes so that they were accommodated.
After the accommodation period, 15 mg/kg of cocaine was administered to the mice via intraperitoneal injection, and then the mice were allowed to remain in the locomotor box. The displacement from spontaneous movements of the mice was measured. […] On the sixth day of the test, the drug was administered again to the mice and the displacement from spontaneous movements was measured. […] Then, displacement from spontaneous movements was measured. […]

[3] = cited from earlier work
[4] = system: mice; test: CPP test, recurrence of psychological dependence on cocaine after withdrawal; assay type: in vivo, mouse; details: capsazepine 10 mg/kg single-dose pretreatment + cocaine on fifteenth day after 5 days of saline; p<0.05 vs cocaine group
Procedure: The following CPP system was used to perform the test. The CPP system included two boxes, each having a dimension of 15 cm×15 cm×15 cm (width×depth×height). One of the boxes was made of white acryl sheets on three sides thereof, while the other was made of black acryl sheets on three sides thereof. […] Between the two boxes, a gray-colored pathway having a dimension of 3×3×7.5 cm was provided. Also, a Guillotine door capable of interrupting the pathway was provided. […] The test was performed under an illuminance maintained at 20 Lux.
Test animals were divided into four groups. Psychological saline was administered to the first test group (10 mice), and cocaine was administered to the remaining second test group, third test group and fourth test group (30 mice in total). On the ninth day of the test, development of a dependence on cocaine was checked, and then saline was administered alone for the subsequent 5 days to allow the mice to lose the cocaine dependence. […] Residence times in the CPP boxes were measured as described above.

Structure (SMILES)	Inhibition of development of psychological dependence on cocaine (residence times in CPP boxes) ([1]; capsazepine 2.5 and 5 mg/kg i.p., 30 minutes before cocaine 15 mg/kg i.p., p<0.05 vs cocaine group)	Inhibition of behavioral sensitization after drug withdrawal (displacement from spontaneous movements, 60 minutes) ([2]; capsazepine 5 mg/kg pretreated group, cocaine 15 mg/kg on twelfth day after withdrawal period of five days, p<0.01)	Inhibition of behavioral sensitization (displacement from spontaneous movements, 60 minutes) ([2]; capsazepine 5 mg/kg pretreatment + cocaine 15 mg/kg i.p. repeated, sixth day of the test, p<0.001)	Analgesic actions in an animal test ([3]; Kwak et al., 1998, Santos and Calixto, 1997)	Analgesic or anti-inflammatory effect ([3]; Perkins and Campbell, 1992)	Inhibition of recurrence of psychological dependence on cocaine (residence times in CPP boxes) [4]	Effect on development of psychological dependence on cocaine (residence times in CPP boxes) ([1]; capsaicin 0.3 mg/kg pretreatment + cocaine, p<0.01 vs saline group)
Oc1cc2c(cc1O)CN(C(=S)NCCc1ccc(Cl)cc1)CCC2 [capsazepine]	significantly inhibits development of psychological dependence on cocaine	completely inhibited	significantly inhibits behavioral sensitization caused by cocaine; also recorded: behavioral sensitization was inhibited	effective for providing analgesic actions	does not provide an analgesic or anti-inflammatory effect	significantly inhibits recurrence of dependence on cocaine; also recorded: showed inhibition of such recurrence	–
COc1cc(CNC(=O)CCCC/C=C/C(C)C)ccc1O [capsaicin]	–	–	–	–	–	–	increases dependence on cocaine; also recorded: significant increase in psychological dependence on cocaine
